Source: patent US6440984B1, “Use of aryl-substituted pyrimidines as insecticidal and acaricidal agents” (BASF Aktiengesellschaft, priority 1998, dated 2002)

Key:
Type in all cases: in vivo
[1] = test system: Spodoptera Eridania, 3rd Instar Larvae, Southern Armyworm (SAW); assay: Southern armyworm (SAW) leaf-dip test, observations at 5 days; conditions: Southern Army Worm, rating scale; for pest or weed control at 1000 ppm: Spodoptera eridania, foliar, 120 h, read-out: SAW 2^ND-FOLIAR 1000 (ppm)
Protocol: (§1) Test solutions are prepared by dissolving the test compound in a 35% acetone in water mixture to give a concentration of 10,000 ppm. Subsequent dilutions are made with water as needed.
Spodoptera Eridania, 3rd Instar Larvae, Southern Armyworm (SAW)
A Sieva lima bean leaf expanded to 7-8 cm in length is dipped in the test solution with agitation for 3 seconds and allowed to dry in a hood. The leaf is then placed in a 100×10 mm petri dish containing a damp filter paper on the bottom and ten 3rd instar caterpillars. At 5 days, observations are made of mortality, reduced feeding, or any interference with normal molting.

[2] = test system: Tetranychus Urticae (OP-resistant strain), 2-spotted Spider Mite (TSM); assay: Two-spotted spider mite (TSM) plant-dip test, mortality after 2 days; conditions: rating scale; for pest or weed control at 300 ppm: Tetranychus urticae, 48 h, read-out: TSM AD-FOLIAR 300 (ppm)
Protocol: as §1
Tetranychus Urticae (OP-resistant strain), 2-spotted Spider Mite (TSM)
Sieva lima bean plants with primary leaves expanded to 7-8 cm are selected and cut back to one plant per pot. A small piece is cut from an infested leaf taken from the main colony and placed on each leaf of the test plants. This is done about 2 hours before treatment to allow the mites to move over to the test plant to lay eggs. The size of the cut, infested leaf is varied to obtain about 100 mites per leaf. At the time of test treatment, the piece of leaf used to transfer the mites is removed and discarded. The newly-infested plants are dipped in the test solution for 3 seconds with agitation and set in the hood to dry. After 2 days, one leaf is removed and mortality counts are made.

[3] = test system: Aphis Fabae, Mixed Instar, Bean Aphid (BA); assay: Bean aphid (BA) foliar spray test, mortality after 2 days; conditions: rating scale; for pest or weed control at 300 ppm: Aphis fabae, 48 h, read-out: BA AD-FOLIAR 300 (ppm)
Protocol: as §1
Aphis Fabae, Mixed Instar, Bean Aphid (BA)
Pots containing single nasturtium plants (Tropaeolum sp.) about 5 cm tall are infested with about 100-200 aphids one day before the test. Each pot is sprayed with the test solution for 2 revolutions of a 4 rpm turntable in a hood. The spray is directed to give complete coverage of the plants and aphids. The sprayed pots are set on their sides on white trays and held for 2 days, following which mortality estimates are made. Essentially the same method is used with respect to cotton aphid (CA).

[4] = test system: Diabrotica Virgifera Virgifera Leconte, 3rd Instar Western Corn Rootworm (WCR); assay: Western corn rootworm (WCR) soil test, mortality at 5 days; conditions: rating scale; for pest or weed control at 50 ppm: Diabrotica virgifera, 120 h, read-out: WCR 2^ND-SOIL 50 (ppm)
Protocol: Diabrotica Virgifera Virgifera Leconte, 3rd Instar Western Corn Rootworm (WCR) One cc of fine talc is placed in a 30 mL wide-mouth screw-top glass jar. One mL of the appropriate acetone test solution is pipetted onto the talc so as to provide 1.25 mg of active ingredient per jar. The jars are set under a gentle air flow until the acetone is evaporated. The dried talc is loosened, 1 cc of millet seed is added to serve as food for the insects and 25 mL of moist soil is added to each jar. The jar is capped and the contents thoroughly mixed mechanically. Following this, ten 3rd instar rootworms are added to each jar and the jars are loosely capped to allow air exchange for the larvae. The treatments are held for 5 days when mortality counts are made. Missing larvae are presumed dead, since they decompose rapidly and can not be found. The concentrations of active ingredient used in this test correspond approximately to 50 kg/ha.

Fc1ccc(Oc2nccc(-c3ccc(Cl)cc3)n2)cc1C(F)(F)F [Compound 115]
pest or weed control at 1000 ppm [1]: 0 to 45%
pest or weed control at 300 ppm [2]: 45 to 75%

Fc1ccc(-c2ccnc(Oc3ccc(C(F)(F)F)c(F)c3)n2)cc1 [Compound 135]
pest or weed control at 300 ppm [3]: 0 to 45%
pest or weed control at 1000 ppm [1]: 0 to 45%
pest or weed control at 300 ppm [2]: 0 to 45%

Fc1cc(F)cc(-c2ccnc(Oc3ccc(F)c(C(F)(F)F)c3)n2)c1 [Compound 62]
BA AD-FOLIAR 300 (ppm) [3]: B (B 45-75% kill)
SAW 2^ND-FOLIAR 1000 (ppm) [1]: C (C 76-100% kill)

FC(F)(F)Oc1ccc(-c2ccnc(Oc3ccc(Cl)c(C(F)(F)F)c3)n2)cc1 [Compound 46]
BA AD-FOLIAR 300 (ppm) [3]: B (B 45-75% kill)
SAW 2^ND-FOLIAR 1000 (ppm) [1]: B (B 45-75% kill)

Fc1cc(-c2ccnc(Oc3ccc(F)c(Cl)c3)n2)cc(C(F)(F)F)c1 [Compound 56]
WCR 2^ND-SOIL 50 (ppm) [4]: B (B 45-75% kill)

FC(F)(F)c1cccc(Oc2nccc(-c3ccc(Br)cc3)n2)c1 [Compound 161]
pest or weed control at 300 ppm [3]: 76 to 100%
pest or weed control at 1000 ppm [1]: 0 to 45%

FC(F)(F)c1cccc(Oc2nccc(-c3ccc(Cl)cc3)n2)c1 [Compound 116]
pest or weed control at 1000 ppm [1]: 0 to 45%
pest or weed control at 300 ppm [2]: 45 to 75%

FC(F)(F)c1cccc(Oc2nccc(-c3cccc(C(F)(F)F)c3)n2)c1 [Compound 109]
pest or weed control at 300 ppm [3]: 45 to 75%
pest or weed control at 1000 ppm [1]: 0 to 45%

FC(F)(F)c1ccc(Oc2nccc(-c3ccccc3)n2)cc1Cl [Compound 7]
WCR 2^ND-SOIL 50 (ppm) [4]: C (C 76-100% kill)

Fc1ccc(Oc2nccc(-c3ccc(Cl)cc3)n2)cc1C(F)(F)F [Compound 4]
TSM AD-FOLIAR 300 (ppm) [2]: A (A 0-45% kill)

COc1ccc(-c2ccnc(Oc3ccc(Cl)c(C(F)(F)F)c3)n2)cc1 [Compound 35]
WCR 2^ND-SOIL 50 (ppm) [4]: C (C 76-100% kill)

FC(F)(F)Oc1ccc(-c2ccnc(Oc3cccc(C(F)(F)F)c3)n2)cc1 [Compound 48]
BA AD-FOLIAR 300 (ppm) [3]: B (B 45-75% kill)
SAW 2^ND-FOLIAR 1000 (ppm) [1]: A (A 0-45% kill)
TSM AD-FOLIAR 300 (ppm) [2]: B (B 45-75% kill)

Fc1ccc(Oc2nccc(-c3ccc(F)c(C(F)(F)F)c3)n2)cc1C(F)(F)F [Compound 70]
TSM AD-FOLIAR 300 (ppm) [2]: B (B 45-75% kill)

FC(F)(F)c1cccc(Oc2nccc(-c3ccc(Cl)cc3)n2)c1 [Compound 2]
TSM AD-FOLIAR 300 (ppm) [2]: C (C 76-100% kill)

O=[N+]([O-])c1cccc(Oc2nccc(-c3ccc(Cl)cc3)n2)c1 [Compound 140]
pest or weed control at 300 ppm [3]: 0 to 45%
pest or weed control at 300 ppm [2]: 45 to 75%

O=[N+]([O-])c1ccc(Oc2nccc(-c3ccc(OC(F)(F)F)cc3)n2)cc1C(F)(F)F [Compound 49]
BA AD-FOLIAR 300 (ppm) [3]: B (B 45-75% kill)
TSM AD-FOLIAR 300 (ppm) [2]: B (B 45-75% kill)

CS(=O)(=O)c1cc(-c2ccc(Cl)c(Cl)c2)nc(Oc2ccc(F)c(C(F)(F)F)c2)n1 [Compound 92, 2-(3-trifluoromethyl-4-fluorophenoxy)-4-(3,4-dichlorophenyl)-6-methylsulfonylpyrimidine]
pest or weed control at 50 ppm [4]: 76 to 100%

O=[N+]([O-])c1ccc(Oc2nccc(-c3cc(F)cc(C(F)(F)F)c3)n2)cc1C(F)(F)F [Compound 57]
WCR 2^ND-SOIL 50 (ppm) [4]: C (C 76-100% kill)

CSc1cc(-c2ccc(Cl)cc2)nc(Oc2ccc(F)c(C(F)(F)F)c2)n1 [Compound 114]
pest or weed control at 50 ppm [4]: 76 to 100%

FC(F)(F)c1cccc(Oc2nccc(-c3ccccc3)n2)c1 [Compound 128]
pest or weed control at 300 ppm [3]: 45 to 75%
pest or weed control at 300 ppm [2]: 76 to 100%

FC(F)(F)c1cccc(-c2ccnc(Oc3ccc(Cl)c(Cl)c3)n2)c1 [Compound 20]
BA AD-FOLIAR 300 (ppm) [3]: B (B 45-75% kill)
SAW 2^ND-FOLIAR 1000 (ppm) [1]: A (A 0-45% kill)

CCc1cnc(Oc2ccc(F)c(C(F)(F)F)c2)nc1-c1ccc(Cl)cc1 [Compound 132]
pest or weed control at 300 ppm [3]: 76 to 100%
pest or weed control at 1000 ppm [1]: 0 to 45%
pest or weed control at 300 ppm [2]: 45 to 75%

CCc1ccc(-c2ccnc(Oc3ccc(F)c(Cl)c3)n2)cc1 [Compound 13]
BA AD-FOLIAR 300 (ppm) [3]: C (C 76-100% kill)
SAW 2^ND-FOLIAR 1000 (ppm) [1]: C (C 76-100% kill)

CCc1ccc(-c2ccnc(Oc3cccc(C(F)(F)F)c3)n2)cc1 [Compound 15]
BA AD-FOLIAR 300 (ppm) [3]: C (C 76-100% kill)
TSM AD-FOLIAR 300 (ppm) [2]: C (C 76-100% kill)

Fc1ccc(Oc2nccc(-c3ccc(C(F)(F)F)cc3)n2)cc1C(F)(F)F [Compound 29]
BA AD-FOLIAR 300 (ppm) [3]: A (A 0-45% kill)
SAW 2^ND-FOLIAR 1000 (ppm) [1]: A (A 0-45% kill)
TSM AD-FOLIAR 300 (ppm) [2]: B (B 45-75% kill)

Fc1ccc(Oc2nccc(-c3ccc(Cl)c(Cl)c3)n2)cc1C(F)(F)F [Compound 155]
pest or weed control at 300 ppm [3]: 76 to 100%
pest or weed control at 1000 ppm [1]: 0 to 45%

Fc1ccc(Oc2nccc(-c3ccc(Cl)cc3)n2)cc1Cl [Compound 150]
pest or weed control at 300 ppm [3]: 45 to 75%
pest or weed control at 300 ppm [2]: 76 to 100%

Cc1ccc(-c2ccnc(Oc3cccc(C(F)(F)F)c3)n2)cc1 [Compound 147]
pest or weed control at 300 ppm [3]: 76 to 100%
pest or weed control at 300 ppm [2]: 76 to 100%

Fc1cccc(Oc2nccc(-c3ccc(Cl)cc3)n2)c1 [Compound 142]
pest or weed control at 300 ppm [2]: 76 to 100%

Fc1cc(-c2ccnc(Oc3ccccc3)n2)cc(C(F)(F)F)c1 [Compound 54]
BA AD-FOLIAR 300 (ppm) [3]: C (C 76-100% kill)
SAW 2^ND-FOLIAR 1000 (ppm) [1]: C (C 76-100% kill)
TSM AD-FOLIAR 300 (ppm) [2]: C (C 76-100% kill)

Fc1cc(-c2ccnc(Oc3ccc(F)c(C(F)(F)F)c3)n2)cc(C(F)(F)F)c1 [Compound 53]
BA AD-FOLIAR 300 (ppm) [3]: C (C 76-100% kill)
SAW 2^ND-FOLIAR 1000 (ppm) [1]: A (A 0-45% kill)

CCCc1cnc(Oc2cccc(C(F)(F)F)c2)nc1-c1cccc(C(F)(F)F)c1 [Compound 159]
pest or weed control at 1000 ppm [1]: 0 to 45%
pest or weed control at 300 ppm [2]: 45 to 75%

CSc1cc(-c2cccc(Cl)c2)nc(Oc2ccc(Cl)c(C(F)(F)F)c2)n1 [Compound 125]
WCR 2^ND-SOIL 50 (ppm) [4]: B (B 45-75% kill)

CSc1cc(-c2ccc(Cl)c(Cl)c2)nc(Oc2ccc(F)c(C(F)(F)F)c2)n1 [Compound 85, 2-(3-Trifluoromethyl-4-fluorophenoxy)-4-(3,4-dichlorophenyl)-6-thiomethylpyrimidine]
pest or weed control at 50 ppm [4]: 76 to 100%

Fc1ccc(-c2ccnc(Oc3cccc(C(F)(F)F)c3)n2)cc1 [Compound 136]
pest or weed control at 1000 ppm [1]: 0 to 45%
pest or weed control at 300 ppm [2]: 0 to 45%

CCc1cnc(Oc2ccc(F)c(C(F)(F)F)c2)nc1-c1cccc(C(F)(F)F)c1 [Compound 156]
pest or weed control at 300 ppm [3]: 76 to 100%
pest or weed control at 1000 ppm [1]: 0 to 45%
pest or weed control at 300 ppm [2]: 45 to 75%

FC(F)(F)Oc1cccc(-c2ccnc(Oc3cc(Cl)cc(Cl)c3)n2)c1 [Compound 41]
TSM AD-FOLIAR 300 (ppm) [2]: A (A 0-45% kill)

FC(F)(F)c1ccc(-c2ccnc(Oc3cccc(C(F)(F)F)c3)n2)cc1 [Compound 30]
BA AD-FOLIAR 300 (ppm) [3]: A (A 0-45% kill)
SAW 2^ND-FOLIAR 1000 (ppm) [1]: A (A 0-45% kill)
TSM AD-FOLIAR 300 (ppm) [2]: B (B 45-75% kill)

FC(F)(F)c1cccc(-c2ccnc(Oc3ccc(Cl)c(Cl)c3)n2)c1 [Compound 18]
BA AD-FOLIAR 300 (ppm) [3]: A (A 0-45% kill)
SAW 2^ND-FOLIAR 1000 (ppm) [1]: A (A 0-45% kill)
TSM AD-FOLIAR 300 (ppm) [2]: A (A 0-45% kill)

FC(F)(F)c1cc(Oc2nccc(-c3ccc(Cl)cc3)n2)ccc1Cl [Compound 122]
pest or weed control at 1000 ppm [1]: 45 to 75%

CCc1cnc(Oc2cccc(C(F)(F)F)c2)nc1-c1ccc(Cl)c(F)c1 [Compound 82]
pest or weed control at 1000 ppm [1]: 76 to 100%

Fc1ccc(Oc2nccc(-c3ccc(OC(F)(F)F)cc3)n2)cc1C(F)(F)F [Compound 47]
BA AD-FOLIAR 300 (ppm) [3]: A (A 0-45% kill)
SAW 2^ND-FOLIAR 1000 (ppm) [1]: A (A 0-45% kill)
TSM AD-FOLIAR 300 (ppm) [2]: B (B 45-75% kill)
